Here are results for 26 compounds from US20240239781A1, “1H-PYRAZOLE DERIVATIVES AS SIGMA LIGANDS” (ACONDICIONAMIENTO TARRASENSE, priority 2021, published 2024).

For orientation: Ki means a measure of affinity in units of concentration, obtained from inhibition or displacement.

For one assay, the target named is T1, human σ2/TMEM97 receptor (Homo sapiens, UniProt Q5BJF2).
T1 construct: expressed in transfected cells; host or cells: HEK-293
The experiment in a line: Binding assay to human σ2/TMEM97 receptor ([3H]-DTG, transfected HEK-293 membranes). To be noted: class scale, read-out: Binding σ-2 Ki. Put shortly: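 Competition against 10 nM [3H]-DTG (Tris-HCl 50 mM, pH 8.0, 25 °C, 120 min) using 15 μg transfected HEK-293 membrane protein, with 10 μM haloperidol defining NSB. Bound radioactivity counted after filtration; results as single-point % inhibition (1 or 10 μM) or five-point Ki.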

The target in a further assay is T2, human σ1 receptor (Homo sapiens, UniProt Q99720).
T2 construct: expressed in transfected cells; host or cells: HEK-293
T2 sequence (Q99720 whole entry): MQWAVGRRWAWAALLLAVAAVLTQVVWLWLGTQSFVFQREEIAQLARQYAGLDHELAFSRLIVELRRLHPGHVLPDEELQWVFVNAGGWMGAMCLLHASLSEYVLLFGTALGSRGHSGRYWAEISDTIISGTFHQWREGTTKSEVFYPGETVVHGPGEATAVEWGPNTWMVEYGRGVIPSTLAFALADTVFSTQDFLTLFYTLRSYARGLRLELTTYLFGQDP
The experiment in a line: Human σ1 receptor radioligand assay ([3H](+)-pentazocine, transfected HEK-293 membranes). As to conditions: class scale, read-out: Binding σ-1 Ki. Put shortly: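 Compounds were tested at a single 1 or 10 μM concentration (% inhibition) or at five concentrations to give Ki. They competed with 5 nM [3H](+)-pentazocine for transfected HEK-293 membranes (7 μg) in 50 mM Tris-HCl pH 8 at 37° C for 120 minutes. Nonspecific binding was set with 10 μM haloperidol, and a filtration scintillation read-out was used.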

T1 sequence (Q5BJF2 whole entry): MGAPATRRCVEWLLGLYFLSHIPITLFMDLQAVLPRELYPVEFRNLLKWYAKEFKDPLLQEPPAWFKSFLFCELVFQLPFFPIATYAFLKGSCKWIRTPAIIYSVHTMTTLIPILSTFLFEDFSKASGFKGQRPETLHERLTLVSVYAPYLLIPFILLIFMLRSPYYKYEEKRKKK

Turning to `CCn1nc(-c2cc(C)on2)c(C(=O)NC2CCCN(CCC(C)(C)C)C2)c1Cl` (stereo not shown) [Example 202, 5-Chloro-N-(1-(3,3-dimethylbutyl)piperidin-3-yl)-1-ethyl-3-(5-methylisoxazol-3-yl)-1H-pyrazole-4-carboxamide], the Ki on human σ2/TMEM97 receptor and at human σ1 receptor was 100 to 500 nM each time.
As to `CCn1nc(-c2cc(C)on2)c(C(=O)NCC2CCN(CCC(C)(C)C)CC2)c1Cl` [Example 203, 5-Chloro-N-((1-(3,3-dimethylbutyl)piperidin-4-yl)methyl)-1-ethyl-3-(5-methylisoxazol-3-yl)-1H-pyrazole-4-carboxamide], the Ki is less than 100 nM at human σ2/TMEM97 receptor and 100 to 500 nM at human σ1 receptor.
For `CCn1nc(-c2cc(C)on2)c(C(=O)Nc2ccc3c(c2)CCN(CCC(C)(C)C)C3)c1Cl` [Example 204, 5-Chloro-N-(2-(3,3-dimethylbutyl)-1,2,3,4-tetrahydroisoquinolin-6-yl)-1-ethyl-3-(5-methylisoxazol-3-yl)-1H-pyrazole-4-carboxamide], in that order: less than 100 nM and less than 100 nM.
Taken in the same sequence, the figures for `CCn1nc(-c2cc(C)on2)c(C(=O)NCC2CCCN(CCC(C)(C)C)C2)c1Cl` (stereo not shown) [Example 205, 5-Chloro-N-((1-(3,3-dimethylbutyl)piperidin-3-yl)methyl)-1-ethyl-3-(5-methylisoxazol-3-yl)-1H-pyrazole-4-carboxamide] were less than 100 nM and less than 100 nM.
With `CCn1nc(-c2cc(C)on2)c(C(=O)NC2CCCCN(CCC(C)(C)C)C2)c1Cl` (stereo not shown) [Example 206, 5-Chloro-N-(1-(3,3-dimethylbutyl)azepan-3-yl)-1-ethyl-3-(5-methylisoxazol-3-yl)-1H-pyrazole-4-carboxamide], the Ki at human σ2/TMEM97 receptor and at human σ1 receptor was 500 to 1000 nM in each case.
As for `CCn1nc(-c2ccnc(C)c2)c(C(=O)N2CCC3(CCN(CCC(C)(C)C)CC3)CC2)c1Cl` [Example 207, (5-Chloro-1-ethyl-3-(2-methylpyridin-4-yl)-1H-pyrazol-4-yl)(9-(3,3-dimethylbutyl)-3,9-diazaspiro[5.5]undecan-3-yl)methanone], the figures for the Ki at human σ2/TMEM97 receptor and on human σ1 receptor were less than 100 nM and 100 to 500 nM, respectively.
Taken in the same sequence, the figures for `Cc1cc(-c2nn(C)c(Cl)c2CC(=O)N2CCC3(CCN(CCC(C)(C)C)CC3)CC2)no1` [Example 208, 2-(5-Chloro-1-methyl-3-(5-methylisoxazol-3-yl)-1H-pyrazol-4-yl)-1-(9-(3,3-dimethylbutyl)-3,9-diazaspiro[5.5]undecan-3-yl)ethan-1-one] were less than 100 nM and 500 to 1000 nM.
Taken in the same sequence, the figures for `CCn1nc(-c2ccon2)c(CC(=O)N2CCC3(CCN(CCC(C)(C)C)CC3)CC2)c1Cl` [Example 209, 2-(5-Chloro-1-ethyl-3-(isoxazol-3-yl)-1H-pyrazol-4-yl)-1-(9-(3,3-dimethylbutyl)-3,9-diazaspiro[5.5]undecan-3-yl)ethan-1-one] were less than 100 nM and less than 100 nM.
For `CCn1nc(-c2cc(C)on2)c(CC(=O)N2CCC3(CCN(CCC(C)(C)C)CC3)CC2)c1Cl` [Example 210, 2-(5-Chloro-1-ethyl-3-(5-methylisoxazol-3-yl)-1H-pyrazol-4-yl)-1-(9-(3,3-dimethylbutyl)-3,9-diazaspiro[5.5]undecan-3-yl)ethan-1-one], in that order: less than 100 nM and 500 to 1000 nM.
In the case of `CCn1nc(-c2ccon2)c(CC(=O)Nc2ccc3c(c2)CCN(CCC(C)(C)C)C3)c1Cl` [Example 211, 2-(5-Chloro-1-ethyl-3-(isoxazol-3-yl)-1H-pyrazol-4-yl)-N-(2-(3,3-dimethylbutyl)-1,2,3,4-tetrahydroisoquinolin-6-yl)acetamide], the Ki at human σ2/TMEM97 receptor and on human σ1 receptor was less than 100 nM in each case.
For the compound `CCn1nc(-c2ccon2)c(CC(=O)NCC2CCCN(CCC(C)(C)C)C2)c1Cl` (stereo not shown) [Example 212, 2-(5-Chloro-1-ethyl-3-(isoxazol-3-yl)-1H-pyrazol-4-yl)-N-((1-(3,3-dimethylbutyl)piperidin-3-yl)methyl)acetamide], the Ki on human σ2/TMEM97 receptor was 100 to 500 nM; on human σ1 receptor it was less than 100 nM.
For `Cn1nc(-c2cccc(C(F)(F)F)n2)c(CC(=O)N2CCC3(CCN(CCC(C)(C)C)CC3)CC2)c1Cl` [Example 213, 2-(5-Chloro-1-methyl-3-(6-(trifluoromethyl)pyridin-2-yl)-1H-pyrazol-4-yl)-1-(9-(3,3-dimethylbutyl)-3,9-diazaspiro[5.5]undecan-3-yl)ethan-1-one], in that order: less than 100 nM and 100 to 500 nM.
For `Cc1cc(-c2nn(C)c(Cl)c2CC(=O)N2CCCC3(CCN(CCC(C)(C)C)CC3)C2)no1` [Example 214, 2-(5-Chloro-1-methyl-3-(5-methylisoxazol-3-yl)-1H-pyrazol-4-yl)-1-(9-(3,3-dimethylbutyl)-2,9-diazaspiro[5.5]undecan-2-yl)ethan-1-one], in that order: less than 100 nM and 100 to 500 nM.
For `Cc1cc(-c2nn(C)c(Cl)c2CC(=O)NC2CCC3(CC2)CCN(CCC(C)(C)C)CC3)no1` [Example 215, 2-(5-Chloro-1-methyl-3-(5-methylisoxazol-3-yl)-1H-pyrazol-4-yl)-N-(3-(3,3-dimethylbutyl)-3-azaspiro[5.5]undecan-9-yl)acetamide], in that order: less than 100 nM and 100 to 500 nM.
Regarding `CCn1nc(-c2cc(C)on2)c(CC(=O)NC2CCC3(CC2)CCN(CCC(C)(C)C)CC3)c1Cl` [Example 216, 2-(5-Chloro-1-ethyl-3-(5-methylisoxazol-3-yl)-1H-pyrazol-4-yl)-N-(3-(3,3-dimethylbutyl)-3-azaspiro[5.5]undecan-9-yl)acetamide], the Ki on human σ2/TMEM97 receptor and at human σ1 receptor was less than 100 nM each time.
Consider `CCn1nc(-c2cc(C)on2)c(CC(=O)N2CCCC3(CCN(CCC(C)(C)C)CC3)C2)c1Cl` [Example 217, 2-(5-Chloro-1-ethyl-3-(5-methylisoxazol-3-yl)-1H-pyrazol-4-yl)-1-(9-(3,3-dimethylbutyl)-2,9-diazaspiro[5.5]undecan-2-yl)ethan-1-one], for which the figures for the Ki at human σ2/TMEM97 receptor and at human σ1 receptor were less than 100 nM and 100 to 500 nM, respectively.
For `CCn1nc(-c2ccon2)c(CC(=O)N2CCCC3(CCN(CCC(C)(C)C)CC3)C2)c1Cl` [Example 218, 2-(5-Chloro-1-ethyl-3-(isoxazol-3-yl)-1H-pyrazol-4-yl)-1-(9-(3,3-dimethylbutyl)-2,9-diazaspiro[5.5]undecan-2-yl)ethan-1-one], in that order: less than 100 nM and greater than 1000 nM.
For `CCn1nc(-c2ccon2)c(CC(=O)NC2CCC3(CC2)CCN(CCC(C)(C)C)CC3)c1Cl` [Example 219, 2-(5-Chloro-1-ethyl-3-(isoxazol-3-yl)-1H-pyrazol-4-yl)-N-(3-(3,3-dimethylbutyl)-3-azaspiro[5.5]undecan-9-yl)acetamide], in that order: less than 100 nM and 100 to 500 nM.
Consider `Cc1cc(-c2nn(C)c(Cl)c2CC(=O)NC2CCN(CCC(C)(C)C)CC2)no1` [Example 220, 2-(5-Chloro-1-methyl-3-(5-methylisoxazol-3-yl)-1H-pyrazol-4-yl)-N-(1-(3,3-dimethylbutyl)piperidin-4-yl)acetamide], for which the Ki at human σ2/TMEM97 receptor is less than 100 nM; on human σ1 receptor, 100 to 500 nM.
Taken in the same sequence, the figures for `CCn1nc(-c2ccon2)c(CC(=O)NC2CCN(CCC(C)(C)C)CC2)c1Cl` [Example 221, 2-(5-Chloro-1-ethyl-3-(isoxazol-3-yl)-1H-pyrazol-4-yl)-N-(1-(3,3-dimethylbutyl)piperidin-4-yl)acetamide] were less than 100 nM and less than 100 nM.
Take `Cn1nc(-c2cccc(C(F)(F)F)n2)c(CC(=O)NC2CCN(CCC(C)(C)C)CC2)c1Cl` [Example 222, 2-(5-Chloro-1-methyl-3-(6-(trifluoromethyl)pyridin-2-yl)-1H-pyrazol-4-yl)-N-(1-(3,3-dimethylbutyl)piperidin-4-yl)acetamide]: the Ki at human σ2/TMEM97 receptor and on human σ1 receptor was less than 100 nM throughout.
For `CCn1nc(-c2cccc(C(F)(F)F)n2)c(CC(=O)NC2CCN(CCC(C)(C)C)CC2)c1Cl` [Example 223, 2-(5-chloro-1-ethyl-3-(6-(trifluoromethyl)pyridin-2-yl)-1H-pyrazol-4-yl)-N-(1-(3,3-dimethylbutyl)piperidin-4-yl)acetamide], the Ki on human σ2/TMEM97 receptor and at human σ1 receptor was less than 100 nM each time.
For the compound `CCn1nc(-c2ccon2)c(CC(=O)NC2CC3(CCN(CCC(C)(C)C)CC3)C2)c1Cl` [Example 224, 2-(5-chloro-1-ethyl-3-(isoxazol-3-yl)-1H-pyrazol-4-yl)-N-(7-(3,3-dimethylbutyl)-7-azaspiro[3.5]nonan-2-yl)acetamide], the values for the Ki on human σ2/TMEM97 receptor and at human σ1 receptor were less than 100 nM and 100 to 500 nM, respectively.
For `CCn1nc(-c2cc(C)on2)c(CN2CC3(CCN(CCC(C)(C)C)CC3)CC2=O)c1Cl` [Example 225, 2-((5-Chloro-1-ethyl-3-(5-methylisoxazol-3-yl)-1H-pyrazol-4-yl)methyl)-8-(3,3-dimethylbutyl)-2,8-diazaspiro[4.5]decan-3-one], in that order: less than 100 nM and 100 to 500 nM.
For `CCCn1nc(-c2cc(C)on2)c(CN2CC3(CCN(CCC(C)(C)C)CC3)CC2=O)c1Cl` [Example 226, 2-((5-Chloro-3-(5-methylisoxazol-3-yl)-1-propyl-1H-pyrazol-4-yl)methyl)-8-(3,3-dimethylbutyl)-2,8-diazaspiro[4.5]decan-3-one], in that order: less than 100 nM and 100 to 500 nM.
For `Cn1nc(-c2cccc(C(F)(F)F)n2)c(CN2CC3(CCN(CCC(C)(C)C)CC3)CC2=O)c1Cl` [Example 227, 2-((5-Chloro-1-methyl-3-(6-(trifluoromethyl)pyridin-2-yl)-1H-pyrazol-4-yl)methyl)-8-(3,3-dimethylbutyl)-2,8-diazaspiro[4.5]decan-3-one], in that order: less than 100 nM and less than 100 nM.
